Experimental data: ChEMBL document CHEMBL1128296, “Quantitative binding site model generation: compass applied to multiple chemotypes targeting the 5-HT1A receptor” (J Med Chem, 1995)
pKi: −log10 of the molar value.

Test: Tested for activity against 5-hydroxytryptamine 1A receptor from bovine hippocampus

Structure (SMILES)	pKi
COc1cccc2c1C[C@H]1CCN(Cc3ccccc3)[C@@H]1C2	6.90
C=CCN1C[C@H]2c3c(cccc3OC)CC[C@H]21	8.23
CCCN1CC[C@@H]2c3ccccc3CC[C@H]21	7.36
COc1cccc2c1CC[C@@H]1[C@@H]2CCN1CC1CC1	7.18
C=CCN1CC[C@H]2c3ccccc3CC[C@H]21	7.51
CCCN1CC[C@H]2c3ccccc3CC[C@H]21	7.43
COc1cccc2c1C[C@H]1CCN(CC3CC3)[C@@H]1C2	7.54
COc1cccc2c1C[C@H]1CCN(CC3CC3)[C@H]1C2	6.14
COc1cccc2c1C[C@H]1CCN[C@@H]1C2	7.54
CCCN1CC[C@H]2c3c(cccc3OC)CC[C@H]21	6.73
C=CCN1C[C@H]2c3c(O)cccc3CC[C@H]21	9.52
C=CCN1CC[C@@H]2c3ccccc3CC[C@H]21	7.96
